Here are results for 9 molecules from the supplement of paper PMC11061612.

Assay in all cases: combination Emax (second highest fraction inhibited in the dose matrix, 72 h); higher = more inhibition; extreme values may be limits of the assay
In experiment [1] the test system is ESS-1 (Other Solid Carcinomas). The procedure, abridged: (§1)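 After 24 hours at 37°C and 5% CO2 in 1536-well plates, cells in DMEM/F12 or RPMI plus 10% FBS received two-drug dose matrices for 72 hours. Viability came from CellTiter-Glo 2.0 luminescence and was scaled as inhibition, anchored at 0 by vehicle wells and at 1 by blank wells. Combination Emax is taken as the second-highest inhibition in the matrix, and Bliss excess as the observed combination effect less EA + EB − EA·EB, with EA and EB the single-agent effects.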

The subject of experiment [2] is Hs-746T (Gastric Carcinoma). The procedure, abridged: as §1
Experiment [3] deals with TGBC1TKB (Biliary Tract Carcinoma). The method in brief:
as §1

Experiment [4] has as its system NCI-H209 (Small Cell Lung Carcinoma). The procedure, abridged: as §1
Experiment [5] deals with NCI-H524 (Small Cell Lung Carcinoma). The method in brief:
as §1

In experiment [6] the test system is SAS (Oral Cavity Carcinoma). The procedure, abridged: as §1
The test system of another experiment is A673 (Ewing's Sarcoma). The procedure, abridged: as §1
The subject of a further experiment is NCI-H2722 (Mesothelioma). The method in brief:
as §1

In experiment [7] the test system is Detroit562 (Head and Neck Carcinoma). The method in brief:
as §1

Experiment [8] has as its system OVCAR-5 (Ovarian Carcinoma). The method in brief: as §1

On to `NC1(C(=O)N[C@@H](CCO)c2ccc(Cl)cc2)CCN(c2ncnc3[nH]ccc23)CC1` [Capivasertib] + CCN(CCO)CCCOc1ccc2c(Nc3cc(CC(=O)Nc4cccc(F)c4)[nH]n3)ncnc2c1 [AZD2811] (first compound max 10 µM, 7x7, partner max 1 µM), for which the “combination Emax” value amounted to 0.812 in experiment [1]; 0.403 in [2]; 0.298 in [3]; 0.428 in experiment [4]; 0.992 in [5]; 0.299 in experiment [6]. For the same molecule, the “combination Emax” value in the experiment on A673 (Ewing's Sarcoma) was found to be 0.703; in the experiment on NCI-H2722 (Mesothelioma), 0.515; in [7] it was 0.892; in experiment [8], 0.401.
`CC(=O)c1c(C)c2cnc(Nc3ccc(N4CCNCC4)cn3)nc2n(C2CCCC2)c1=O` [Palbociclib] + CC1(C)CCC(CN2CCN(c3ccc(C(=O)NS(=O)(=O)c4ccc(NCC5CCOCC5)c([N+](=O)[O-])c4)c(Oc4cnc5[nH]ccc5c4)c3)CC2)=C(c2ccc(Cl)cc2)C1 [Venetoclax] (first compound max 10 µM, 7x7, partner max 1 µM): the “combination Emax” value in experiment [1] is 0.294; in [2], 0.24; in [3], 0.033; in experiment [4], 0.921; in [5], 0.685; in [6] it was 0.47. Besides, the “combination Emax” value is 0.136 in the experiment with A673 (Ewing's Sarcoma), 0.118 in the experiment on NCI-H2722 (Mesothelioma), 0.543 in [7] and 0.346 in [8].
For the molecule `COc1nnc2ccc(N3CCC(c4ccc(OCCN5CCN(C)C(=O)[C@H]5C)cc4)CC3)nn12` [AZD5153] + Cc1c2c(nn1C)CSCc1cc(n(C)n1)CSc1cc(c3ccccc3c1)OCCCc1c(C(=O)O)n(C)c3c-2c(Cl)ccc13 [AZD5991] (first compound max 1 µM, 7x7, partner max 1 µM), the “combination Emax” value worked out at 0.898 in experiment [1]; 0.495 in experiment [2]; 0.289 in [3]; 0.981 in [4]; 0.934 in experiment [5]; 0.823 in experiment [6]. For the same molecule, the “combination Emax” value in the experiment with A673 (Ewing's Sarcoma) was determined as 0.699; with NCI-H2722 (Mesothelioma), 0.508; in experiment [7], 0.877; in experiment [8], 0.496.
Consider `CS(=O)(=O)CCNCc1ccc(-c2ccc3ncnc(Nc4ccc(OCc5cccc(F)c5)c(Cl)c4)c3c2)o1` [Lapatinib] + NC1(c2ccc(-c3nc4ccn5c(=O)[nH]nc5c4cc3-c3ccccc3)cc2)CCC1 [MK-2206] (first compound max 10 µM, 7x7, partner max 10 µM), for which the “combination Emax” value in [1] stood at 0.96; in experiment [3], 0.623; in experiment [5], 0.941; in experiment [6], 0.641; in the experiment on A673 (Ewing's Sarcoma) it was 0.363; in [8] it was 0.787.
As to `Cc1c2c(nn1C)CSCc1cc(n(C)n1)CSc1cc(c3ccccc3c1)OCCCc1c(C(=O)O)n(C)c3c-2c(Cl)ccc13` [AZD5991] + Cn1cnc2c(F)c(Nc3ccc(Br)cc3Cl)c(C(=O)NOCCO)cc21 [Selumetinib] (first compound max 1 µM, 7x7, partner max 3 µM), the “combination Emax” value in experiment [1] turned out to be 0.224; in experiment [2] it was 0.422; in [3] it was 0.187; in experiment [4], 0.402; in experiment [5], 0.336; in experiment [6] it was 0.44. Besides, the “combination Emax” value in the experiment with A673 (Ewing's Sarcoma) worked out at 0.671; in the experiment with NCI-H2722 (Mesothelioma), 0.238; in experiment [7] it was 0.365; in experiment [8], 0.543.
For the molecule `C[C@@H](Oc1cc(-c2cnn(C3CCNCC3)c2)cnc1N)c1c(Cl)ccc(F)c1Cl` [Crizotinib] + CC1=C(C(=CC=C1)Cl)NC(=O)C2=CN=C(S2)NC3=CC(=NC(=N3)C)N4CCN(CC4)CCO [Dasatinib] (first compound max 10 µM, 7x7, partner max 2 µM), the “combination Emax” value in [1] was found to be 0.987; in experiment [3] it was 0.707; in [5], 0.977; in experiment [6] it was 0.779; in the experiment with A673 (Ewing's Sarcoma), 0.681; in [8] it was 0.826.
With `Cc1c2c(nn1C)CSCc1cc(n(C)n1)CSc1cc(c3ccccc3c1)OCCCc1c(C(=O)O)n(C)c3c-2c(Cl)ccc13` [AZD5991] + CS(=O)(=O)CCNCc1ccc(-c2ccc3ncnc(Nc4ccc(OCc5cccc(F)c5)c(Cl)c4)c3c2)o1 [Lapatinib] (first compound max 1 µM, 7x7, partner max 10 µM), the “combination Emax” value in experiment [1] came out at 0.702; in [5] it was 0.502; in [6] it was 0.485; with A673 (Ewing's Sarcoma), 0.388; in experiment [8], 0.334.
Consider `C=CCn1c(=O)c2cnc(Nc3ccc(N4CCN(C)CC4)cc3)nc2n1-c1cccc(C(C)(C)O)n1` [AZD1775] + Nc1ccn([C@@H]2O[C@H](CO)[C@@H](O)C2(F)F)c(=O)n1 [Gemcitabine] (first compound max 1 µM, partner max 0.3 µM), for which the “combination Emax” value stood at 1 in experiment [1]; 0.454 in experiment [3]; 0.951 in [5]; 0.996 in experiment [6]; 0.937 in the experiment with A673 (Ewing's Sarcoma); 0.692 in [8].
On to `C=CCn1c(=O)c2cnc(Nc3ccc(N4CCN(C)CC4)cc3)nc2n1-c1cccc(C(C)(C)O)n1` [AZD1775] + CCc1c2c(nc3ccc(O)cc13)-c1cc3c(c(=O)n1C2)COC(=O)[C@]3(O)CC [SN-38] (first compound max 1 µM, partner max 0.3 µM), for which the “combination Emax” value in experiment [1] came out at 1; in experiment [3] it was 0.426; in [5], 0.76; in experiment [6], 1; in the experiment on A673 (Ewing's Sarcoma), 0.973; in experiment [8], 0.77.
